The nature of the data set: Stability in simulated gastric fluid (SGF). The class given is in vitro ADME, porcine. The note with it: simulated gastric fluid (SGF) with pepsin, pH 1.3, 15 μL of 1 mM peptide stock in 285 μL SGF, 37 °C, samples 0 min-24 h quenched with 0.2 M Na2CO3, RP-HPLC/LC-MS peak area as % of time 0, exponential one-phase decay fit, read-out: t1/2 in SGF. The gist of the method:
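Peptides incubated at 37 °C in SGF (pepsin, pH 1.3) or SIF (porcine pancreatin, pH 6.8), sampled from 0 min to 24 h. Remaining peptide quantified by RP-HPLC peak area as % of time 0, with t1/2 from one-phase exponential decay fit. Metabolites identified by LC-MS.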

Consider `CC[C@H](C)[C@@H]1NC(=O)[C@H](CCCNC(=N)N)NC(=O)[C@H](CO)NC(=O)[C@H](CC(=O)O)NC(=O)[C@H](Cc2ccccc2)NC(=O)[C@@H]2CSSC[C@H](NC(=O)[C@H](CCC(N)=O)NC(=O)[C@H](CC(N)=O)NC(=O)[C@H](C)NC(=O)[C@H](CO)NC(=O)[C@H](CC(C)C)NC(=O)CNC(=O)[C@@H](NC(=O)[C@H](Cc3ccc(O)cc3)NC(=O)[C@H](CCC(=O)O)NC(=O)[C@@H](N)CCC(=O)O)C(C)C)C(=O)N[C@@H](C)C(=O)N[C@@H](C(C)C)C(=O)N3CCC[C@H]3C(=O)N[C@@H](C)C(=O)N[C@@H](CCCCN)C(=O)N[C@@H](CC(=O)O)C(=O)N[C@@H](CCCNC(=N)N)C(=O)N[C@@H](C(C)C)C(=O)N[C@@H](CC(=O)O)C(=O)N[C@H]3CSSC[C@H](NC(=O)CNC(=O)[C@H](CCCNC(=N)N)NC(=O)[C@H](CC(N)=O)NC(=O)[C@H](CC(N)=O)NC(=O)[C@H](CSSC[C@@H](C(=O)N[C@@H](Cc4ccccc4)C(=O)N[C@@H](CCCCN)C(=O)N4CCC[C@H]4C(=O)N[C@@H](CC(C)C)C(=O)N[C@@H](CCC(N)=O)C(=O)N[C@@H](CCC(=O)O)C(=O)N[C@@H](C)C(=O)N[C@@H](CCC(=O)O)C(=O)N[C@@H](CSCNC(C)=O)C(=O)N[C@H](C(=O)N[C@@H](Cc4ccccc4)C(=O)O)[C@@H](C)O)NC(=O)[C@H](Cc4c[nH]c5ccccc45)NC(=O)[C@@H]4CCCN4C(=O)[C@H](C(C)C)NC(=O)CNC(=O)[C@@H]4CCCN4C1=O)NC(=O)[C@H](CCC(=O)O)NC(=O)[C@H](CCCCN)NC(=O)[C@@H]1CCCN1C(=O)[C@H]([C@@H](C)O)NC(=O)[C@H](C(C)C)NC(=O)[C@H](Cc1c[nH]cn1)NC(=O)[C@@H]1CCCN1C(=O)[C@H](Cc1ccc(O)cc1)NC(=O)CNC3=O)C(=O)N2` [TFF3(C^57Acm)], for which the half-life at 50 μM is less than 5 min.

The values are drawn from PMC8273887 (Journal of Medicinal Chemistry, 2021).
